Organism: Rattus norvegicus
Experiment: Open TG-GATES - Regimen: Single
Assay type: toxicity, organism-based, Sprague-Dawley
Design: regimen Single, gender Male, age 6 weeks
Conditions: in vivo, po, 30 mg/kg, route gavage, dose level Low; for APTT / Bas / Eos / Fbg / Hb / Ht / Lym / MCH / MCHC / MCV / Mono / Neu / PT / Plat / RBC / Ret / WBC: tissue Blood; for KIDNEY_L / KIDNEY_R / KIDNEY_TOTAL: tissue Kidney; for LIVER: tissue Liver; for A/G / ALP / ALT / AST / BUN / CRE / Ca / Cl / DBIL / GLC / IP / K / LDH / Na / PL / RALB / TBIL / TC / TG / TP / gamma-GTP: tissue Plasma

`CC[C@H]1[C@@H]2C[C@H]3[C@@H]4N(C)c5ccccc5[C@]45C[C@@H]([C@@H]2[C@H]5O)N3[C@@H]1O` [AJMALINE] gave a TERMINAL_BW (3 h) of 194.7 g, an APTT (3 h) of 16.9 s and a Bas (3 h) of 0%. The Eos (3 h) was 1%, the Fbg (3 h) was 196.4 mg/dL and the Hb (3 h) was 12.8 g/dL. It also gave a Ht (3 h) of 39.1%, a Lym (3 h) of 78.6% and an MCH (3 h) of 21.7 pg. It also gave an MCHC (3 h) of 32.8%, an MCV (3 h) of 66.3 fL and a Mono (3 h) of 8.8%. For the same compound, the Neu (3 h) was 12%, the PT (3 h) was 11.6 s and the Plat (3 h) was 121.5 x10_4/uL. The RBC (3 h) was 590.6 x10_4/ul, the Ret (3 h) was 12.4% and the WBC (3 h) was 114.3 x10_2/uL. The KIDNEY_L (3 h) was 0.9 g, the KIDNEY_R (3 h) was 0.9 g and the KIDNEY_TOTAL (3 h) was 1.8 g. For the same compound, the LIVER (3 h) was 9.1 g, the A/G (3 h) was 2.3 and the ALP (3 h) was 821 IU/L. The ALT (3 h) was 34.8 IU/L, the AST (3 h) was 69.8 IU/L and the BUN (3 h) was 12.2 mg/dL. The CRE (3 h) was 0.4 mg/dL, the Ca (3 h) was 11.3 mg/dL and the Cl (3 h) was 102.4 meq/L. The DBIL (3 h) was 0.052 mg/dL, the GLC (3 h) was 193.6 mg/dL and the IP (3 h) was 9 mg/dL. The K (3 h) was 4.5 meq/L, the LDH (3 h) was 108 IU/L and the Na (3 h) was 137.8 meq/L. The PL (3 h) was 141.6 mg/dL, the RALB (3 h) was 3.7 g/dL and the TBIL (3 h) was 0.4 mg/dL. It also gave a TC (3 h) of 77.4 mg/dL, a TG (3 h) of 55.8 mg/dL and a TP (3 h) of 5.3 g/dL. The gamma-GTP (3 h) was 1.6 IU/L, the TERMINAL_BW (6 h) was 190.9 g and the APTT (6 h) was 17.2 s. It also gave a Bas (6 h) of 0%, an Eos (6 h) of 1.2% and a Fbg (6 h) of 205 mg/dL. For the same compound, the Hb (6 h) was 12.8 g/dL, the Ht (6 h) was 38.9% and the Lym (6 h) was 74%. For the same compound, the MCH (6 h) was 22.2 pg, the MCHC (6 h) was 33% and the MCV (6 h) was 67.2 fL. It also gave a Mono (6 h) of 7%, a Neu (6 h) of 18.2% and a PT (6 h) of 11.8 s. It also gave a Plat (6 h) of 114.2 x10_4/uL, an RBC (6 h) of 578.4 x10_4/ul and a Ret (6 h) of 11.9%. The WBC (6 h) was 89.1 x10_2/uL, the KIDNEY_L (6 h) was 0.9 g and the KIDNEY_R (6 h) was 0.9 g. It also gave a KIDNEY_TOTAL (6 h) of 1.8 g, an LIVER (6 h) of 8.4 g and an A/G (6 h) of 2. For the same compound, the ALP (6 h) was 865.4 IU/L, the ALT (6 h) was 40.6 IU/L and the AST (6 h) was 70 IU/L. It also gave a BUN (6 h) of 9 mg/dL, a CRE (6 h) of 0.5 mg/dL and a Ca (6 h) of 10.8 mg/dL. The Cl (6 h) was 102.6 meq/L, the DBIL (6 h) was 0.068 mg/dL and the GLC (6 h) was 195.8 mg/dL. For the same compound, the IP (6 h) was 9.7 mg/dL, the K (6 h) was 4.6 meq/L and the LDH (6 h) was 104.8 IU/L. For the same compound, the Na (6 h) was 138.8 meq/L, the PL (6 h) was 141.4 mg/dL and the RALB (6 h) was 3.5 g/dL. The TBIL (6 h) was 0.4 mg/dL, the TC (6 h) was 82.8 mg/dL and the TG (6 h) was 46.8 mg/dL. It also gave a TP (6 h) of 5.3 g/dL, a gamma-GTP (6 h) of 1.6 IU/L and a TERMINAL_BW (9 h) of 190.6 g. It also gave an APTT (9 h) of 17.1 s, a Bas (9 h) of 0% and an Eos (9 h) of 1%. It also gave a Fbg (9 h) of 201.2 mg/dL, a Hb (9 h) of 12.6 g/dL and a Ht (9 h) of 38.1%. The Lym (9 h) was 70.4%, the MCH (9 h) was 21.6 pg and the MCHC (9 h) was 33%. The MCV (9 h) was 65.6 fL, the Mono (9 h) was 8% and the Neu (9 h) was 21%. The PT (9 h) was 12.1 s, the Plat (9 h) was 119.4 x10_4/uL and the RBC (9 h) was 580.8 x10_4/ul. The Ret (9 h) was 10.6%, the WBC (9 h) was 83.7 x10_2/uL and the KIDNEY_L (9 h) was 0.9 g. For the same compound, the KIDNEY_R (9 h) was 0.9 g, the KIDNEY_TOTAL (9 h) was 1.8 g and the LIVER (9 h) was 8.1 g. The A/G (9 h) was 2.2, the ALP (9 h) was 827.2 IU/L and the ALT (9 h) was 34.6 IU/L. The AST (9 h) was 64.6 IU/L, the BUN (9 h) was 12.2 mg/dL and the CRE (9 h) was 0.6 mg/dL. For the same compound, the Ca (9 h) was 10.4 mg/dL, the Cl (9 h) was 104.8 meq/L and the DBIL (9 h) was 0.1 mg/dL. For the same compound, the GLC (9 h) was 199.2 mg/dL, the IP (9 h) was 10.3 mg/dL and the K (9 h) was 5 meq/L. It also gave an LDH (9 h) of 108.2 IU/L, a Na (9 h) of 139 meq/L and a PL (9 h) of 132 mg/dL. The RALB (9 h) was 3.6 g/dL, the TBIL (9 h) was 0.4 mg/dL and the TC (9 h) was 82.2 mg/dL. The TG (9 h) was 48.4 mg/dL, the TP (9 h) was 5.2 g/dL and the gamma-GTP (9 h) was 0.8 IU/L. For the same compound, the TERMINAL_BW (24 h) was 210.7 g, the APTT (24 h) was 16.3 s and the Bas (24 h) was 0%. For the same compound, the Eos (24 h) was 1%, the Fbg (24 h) was 225 mg/dL and the Hb (24 h) was 12.8 g/dL. For the same compound, the Ht (24 h) was 38.6%, the Lym (24 h) was 75.8% and the MCH (24 h) was 21.7 pg. The MCHC (24 h) was 33.2%, the MCV (24 h) was 65.3 fL and the Mono (24 h) was 7.6%. For the same compound, the Neu (24 h) was 15.2%, the PT (24 h) was 11.5 s and the Plat (24 h) was 112.6 x10_4/uL. The RBC (24 h) was 590.8 x10_4/ul, the Ret (24 h) was 10.5% and the WBC (24 h) was 105.8 x10_2/uL. It also gave a KIDNEY_L (24 h) of 1 g, a KIDNEY_R (24 h) of 1 g and a KIDNEY_TOTAL (24 h) of 2 g. For the same compound, the LIVER (24 h) was 10.6 g, the A/G (24 h) was 2.1 and the ALP (24 h) was 875.4 IU/L. It also gave an ALT (24 h) of 36.8 IU/L, an AST (24 h) of 66.2 IU/L and a BUN (24 h) of 15.8 mg/dL. The CRE (24 h) was 0.6 mg/dL, the Ca (24 h) was 11.2 mg/dL and the Cl (24 h) was 100.8 meq/L. It also gave a DBIL (24 h) of 0.016 mg/dL, a GLC (24 h) of 207.6 mg/dL and an IP (24 h) of 8.4 mg/dL. For the same compound, the K (24 h) was 4.5 meq/L, the LDH (24 h) was 120.6 IU/L and the Na (24 h) was 140 meq/L. It also gave a PL (24 h) of 156.4 mg/dL, an RALB (24 h) of 3.8 g/dL and a TBIL (24 h) of 0.3 mg/dL. It also gave a TC (24 h) of 86.4 mg/dL, a TG (24 h) of 114.4 mg/dL and a TP (24 h) of 5.6 g/dL. For the same compound, the gamma-GTP (24 h) was 1.4 IU/L.
